Experimental data: ChEMBL document CHEMBL1148793, “Influence of conformation on GRIND-based three-dimensional quantitative structure-activity relationship (3D-QSAR)” (J Med Chem, 2007)

Target: T1, Lanosterol synthase (Homo sapiens, UniProt P48449)
T1 sequence (P48449 whole entry): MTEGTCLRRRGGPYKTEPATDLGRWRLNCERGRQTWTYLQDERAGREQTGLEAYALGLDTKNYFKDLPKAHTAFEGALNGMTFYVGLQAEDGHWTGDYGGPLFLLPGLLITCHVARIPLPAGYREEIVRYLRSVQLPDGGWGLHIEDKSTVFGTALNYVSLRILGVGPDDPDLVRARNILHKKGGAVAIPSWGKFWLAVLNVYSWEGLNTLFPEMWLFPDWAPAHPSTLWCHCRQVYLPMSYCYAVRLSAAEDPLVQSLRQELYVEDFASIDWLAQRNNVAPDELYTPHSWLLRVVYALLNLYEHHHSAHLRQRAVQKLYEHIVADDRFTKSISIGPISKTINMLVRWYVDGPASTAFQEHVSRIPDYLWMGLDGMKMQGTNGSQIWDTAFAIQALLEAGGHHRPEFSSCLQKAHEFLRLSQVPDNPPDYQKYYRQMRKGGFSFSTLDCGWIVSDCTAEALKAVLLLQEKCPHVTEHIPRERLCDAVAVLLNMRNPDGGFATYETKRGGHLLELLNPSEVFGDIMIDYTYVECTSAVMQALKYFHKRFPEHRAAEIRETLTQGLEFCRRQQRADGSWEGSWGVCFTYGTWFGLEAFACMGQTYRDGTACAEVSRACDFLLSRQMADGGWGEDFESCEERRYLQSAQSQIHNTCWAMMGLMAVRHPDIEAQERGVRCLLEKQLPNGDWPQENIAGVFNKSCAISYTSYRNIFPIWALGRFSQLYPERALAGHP
Assay: Inhibition of oxidosqualene cyclase

IC50 | Compound
240 nM | C=CCN(C)CCCCCCOc1ccc2c(c1)c(C)nn2C
31.6 nM | CN(CCCCCCOc1ccc(C(=O)c2ccc(Br)cc2)cc1)CC1CC1
19.1 nM | CN(C/C=C/COc1ccc(C(=O)c2ccc(Br)cc2)cn1)C1CC1
7.76 nM | C=CCN(C)CCCCCCOc1ccc2c(c1)S(=O)(=O)C=C2c1ccc(Br)cc1
